Assay results: ChEMBL document CHEMBL3124785, “Discovery of 2-(1H-indazol-1-yl)-thiazole derivatives as selective EP(1) receptor antagonists for treatment of overactive bladder by core structure replacement” (Bioorg Med Chem Lett, 2014)
In brackets after ≈: the same amount, converted by molar mass.

Legend:
[1] = AUC (0 to infinity) in rat at 10 mg/kg, po; type: ADME, organism-based; set-up: time infinity, dose 10 mg/kg, route oral; details: plasma
[2] = Apparent permeability in MDCK cells; type: ADME, cell-based, Canis lupus familiaris; details: dog
[3] = Solubility of the compound at pH 6.8; type: physicochemical; details: buffer
[4] = Oral bioavailability in rat at 10 mg/kg; type: ADME, organism-based; details: in vivo
[5] = Cmax in rat at 10 mg/kg, po; type: ADME, organism-based; set-up: dose 10 mg/kg, route oral; details: in vivo
[6] = Solubility of the compound in water; type: physicochemical

O=C(O)c1csc(-n2nc(-c3ccccc3)c3ccc(C(F)(F)F)cc32)n1
AUC(0-inf) [1]: 9.27 µM·h
Papp [2]: 178 nm/s
solubility [3]: 0.123 mg/mL (≈ 316 µM)
bioavailability [4]: 31%
Cmax [5]: 5.34 µM
solubility [6]: 0.037 mg/mL (≈ 95 µM)
